Measurements taken from patent US20230134922A1, “TOPICAL DELIVERY OF BUFFERING AGENTS FOR PREVENTION AND TREATMENT OF VIRAL INFECTIONS” (Dyve Biosciences, Inc., priority 2020, published 2023).

Tests used:
MCF-7 cells = assay: Doxorubicin uptake and cytotoxicity at medium pH 6.8 or 7.4; format: cell-based; conditions: raising the pHe from 6.8 to 7.4
Procedure: Twenty-four hours later, regular growth medium was replaced, and cells allowed to grow a subsequent 72 h, after which time they were fixed and stained with crystal violet for determination of cell number.

MCF-7 tumors = assay: MCF-7 tumor growth in SCID mice, doxorubicin with oral or topical bicarbonate; format: in vivo
Procedure: The start of the bicarbonate treatment was designated as day 1.
Tumor volumes and animal weights were monitored every 2 days. […] Other characteristics of tumors that increase its potential for carcinogenesis other than growth rates are measured by other parameters as well, including inhibition metastasis.

Substance: doxorubicin
- enhancement of cytotoxicity (MCF-7 cells): 2.25 fold
- increase in intracellular doxorubicin concentrations (MCF-7 cells): 2.56 fold
- decrease of tumor growth rate (MCF-7 tumors; Group B, 1.6 mg/kg i.p. days 3, 7, 11, doxorubicin alone): ~30%
- reduction in tumor growth rate (MCF-7 tumors; Group D, doxorubicin i.p. with 200 mM sodium bicarbonate drinking water): 55%
- reduction in tumor growth rate (MCF-7 tumors; Group F, doxorubicin i.p. with topical bicarbonate formulation 150 μL/day): significantly lowered tumor growth rate
- reduction in tumor growth rate (MCF-7 tumors; Group F, doxorubicin i.p. with topical bicarbonate formulation 150 μL/day, listed as Doxorubicin): 55%
